Reference: US8415469B2, “Compounds and methods for kinase modulation, and indications therefor” (Plexxikon Inc., priority 2005, dated 2013)

Tests used:
Type in all cases: biochemical
[1] = biological target: T1, B-Raf (Homo sapiens, UniProt P15056); assay: AlphaScreen kinase assay, B-Raf; details: read-out: IC50, activity toward kinase B-Raf
T1 construct: purchased Upstate Biotechnology

[2] = biological target: T2, c-Raf-1 (Homo sapiens, UniProt P04049); assay: AlphaScreen kinase assay, c-Raf-1; details: read-out: IC50, activity toward kinase c-Raf-1
T2 construct: purchased Upstate Biotechnology

[3] = biological target: T3, Fms (Homo sapiens, UniProt P07333); assay: AlphaScreen kinase assay, Fms; details: read-out: IC50, activity toward kinase Fms
T3 construct: purchased Upstate Biotechnology
T3 sequence (P07333 20-972): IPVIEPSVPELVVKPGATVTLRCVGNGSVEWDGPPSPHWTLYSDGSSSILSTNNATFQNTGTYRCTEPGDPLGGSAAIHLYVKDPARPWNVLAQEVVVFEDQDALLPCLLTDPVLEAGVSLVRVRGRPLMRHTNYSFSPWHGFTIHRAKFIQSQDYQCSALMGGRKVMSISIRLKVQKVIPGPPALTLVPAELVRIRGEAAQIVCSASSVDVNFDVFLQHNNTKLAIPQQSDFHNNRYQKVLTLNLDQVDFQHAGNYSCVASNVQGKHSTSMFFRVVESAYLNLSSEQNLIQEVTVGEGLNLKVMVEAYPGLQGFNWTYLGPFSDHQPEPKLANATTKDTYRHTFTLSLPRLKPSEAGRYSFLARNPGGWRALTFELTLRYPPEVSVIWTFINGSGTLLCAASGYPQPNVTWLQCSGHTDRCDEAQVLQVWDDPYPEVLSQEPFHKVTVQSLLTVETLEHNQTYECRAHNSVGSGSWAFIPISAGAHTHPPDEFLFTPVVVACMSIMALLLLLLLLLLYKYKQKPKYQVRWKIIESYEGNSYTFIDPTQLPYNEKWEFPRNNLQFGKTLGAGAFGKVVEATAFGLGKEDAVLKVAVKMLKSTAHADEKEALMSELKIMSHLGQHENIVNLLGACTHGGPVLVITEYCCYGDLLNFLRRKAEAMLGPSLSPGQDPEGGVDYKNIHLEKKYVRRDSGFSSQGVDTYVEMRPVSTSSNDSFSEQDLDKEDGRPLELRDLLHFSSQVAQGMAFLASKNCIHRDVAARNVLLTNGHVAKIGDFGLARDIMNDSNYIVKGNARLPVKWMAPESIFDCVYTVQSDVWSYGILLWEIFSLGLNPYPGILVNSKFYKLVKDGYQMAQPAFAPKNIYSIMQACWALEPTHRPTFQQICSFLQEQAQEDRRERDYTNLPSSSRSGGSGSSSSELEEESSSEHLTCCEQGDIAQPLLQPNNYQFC

[4] = biological target: T4, Pyk2 (Homo sapiens, UniProt Q14289); assay: AlphaScreen kinase assay, Pyk2; details: read-out: IC50, activity toward kinase Pyk2
T4 construct: purchased Upstate Biotechnology

[5] = biological target: Akt3 (Homo sapiens, UniProt Q9Y243); assay: AlphaScreen kinase assay, Akt3; details: read-out: IC50, activity toward kinase Akt3
Chain of Akt3 (Q9Y243 whole entry): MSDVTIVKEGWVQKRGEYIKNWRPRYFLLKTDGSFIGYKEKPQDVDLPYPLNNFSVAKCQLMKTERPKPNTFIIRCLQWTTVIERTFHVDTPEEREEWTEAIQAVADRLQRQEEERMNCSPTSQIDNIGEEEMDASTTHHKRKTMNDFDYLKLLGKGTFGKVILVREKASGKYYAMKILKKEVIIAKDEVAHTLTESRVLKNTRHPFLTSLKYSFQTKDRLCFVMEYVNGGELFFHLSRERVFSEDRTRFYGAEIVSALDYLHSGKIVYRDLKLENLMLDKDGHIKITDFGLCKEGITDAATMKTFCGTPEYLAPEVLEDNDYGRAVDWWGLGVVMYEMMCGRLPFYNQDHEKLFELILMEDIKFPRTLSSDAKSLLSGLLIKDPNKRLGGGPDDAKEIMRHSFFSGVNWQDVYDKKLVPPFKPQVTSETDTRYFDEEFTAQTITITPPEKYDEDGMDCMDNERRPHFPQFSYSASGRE
How it was run: (§1)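 Compounds in DMSO (20 mM stock) were diluted 1:3 across 8 points. Each kinase phosphorylated a biotin-labelled peptide. Signal generated when donor and acceptor beads came close via antibody binding of phosphorylated substrate.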

[6] = biological target: T5, Itk (Homo sapiens, UniProt Q08881); assay: AlphaScreen kinase assay, Itk; details: read-out: IC50, activity toward kinase Itk
T5 sequence (Q08881 1-620): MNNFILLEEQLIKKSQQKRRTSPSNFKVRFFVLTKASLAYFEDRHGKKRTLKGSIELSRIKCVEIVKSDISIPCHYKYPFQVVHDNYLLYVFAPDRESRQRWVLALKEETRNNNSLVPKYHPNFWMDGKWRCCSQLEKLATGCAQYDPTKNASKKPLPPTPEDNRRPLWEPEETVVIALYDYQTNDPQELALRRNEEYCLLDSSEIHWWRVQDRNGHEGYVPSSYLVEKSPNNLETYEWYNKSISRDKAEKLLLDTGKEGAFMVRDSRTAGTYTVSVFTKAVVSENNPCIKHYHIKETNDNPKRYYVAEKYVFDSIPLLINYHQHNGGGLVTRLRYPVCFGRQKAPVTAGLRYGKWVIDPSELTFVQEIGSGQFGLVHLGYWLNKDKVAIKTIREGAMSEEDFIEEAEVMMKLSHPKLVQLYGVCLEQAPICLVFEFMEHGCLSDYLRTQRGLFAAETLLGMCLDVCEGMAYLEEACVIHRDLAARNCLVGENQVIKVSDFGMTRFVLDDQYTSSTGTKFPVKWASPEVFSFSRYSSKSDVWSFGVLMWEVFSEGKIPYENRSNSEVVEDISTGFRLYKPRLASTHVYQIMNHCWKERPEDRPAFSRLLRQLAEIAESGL
Text: AlphaScreen assay was used to screen additional kinases. The assay is similarly dependent on the phosphorylation of a peptide substrate. In this assay, an antibody that recognizes phosphorylated substrate is bound to an acceptor bead. The peptide substrate is attached to biotin, which binds to a donor head that contains streptavidin. Thus phosphorylated substrate is bound by antibody and streptavidin, bringing the donor and acceptor heads into close proximity when kinase is not inhibited. The donor produces singlet oxygen which results in emission from the acceptor when they are in close proximity. Conversely, when kinase is inhibited, the donor and acceptor beads are not associated and the emission from the acceptor is reduced.
AlphaScreen assays were done using compounds dissolved in DMSO to a concentration of 20 mM. The compounds were diluted accordingly to the desired final concentrations in each sample well, using 1:3 serial dilution for a total of 8 concentration points.

[7] = biological target: T6, Kdr (Homo sapiens, UniProt P35968); assay: Z'-Lyte FRET kinase assay (Invitrogen), Kdr; details: read-out: IC50, activity toward kinase Kdr
T6 construct: purchased Invitrogen (assay run by Invitrogen)
T6 sequence (P35968 20-1356): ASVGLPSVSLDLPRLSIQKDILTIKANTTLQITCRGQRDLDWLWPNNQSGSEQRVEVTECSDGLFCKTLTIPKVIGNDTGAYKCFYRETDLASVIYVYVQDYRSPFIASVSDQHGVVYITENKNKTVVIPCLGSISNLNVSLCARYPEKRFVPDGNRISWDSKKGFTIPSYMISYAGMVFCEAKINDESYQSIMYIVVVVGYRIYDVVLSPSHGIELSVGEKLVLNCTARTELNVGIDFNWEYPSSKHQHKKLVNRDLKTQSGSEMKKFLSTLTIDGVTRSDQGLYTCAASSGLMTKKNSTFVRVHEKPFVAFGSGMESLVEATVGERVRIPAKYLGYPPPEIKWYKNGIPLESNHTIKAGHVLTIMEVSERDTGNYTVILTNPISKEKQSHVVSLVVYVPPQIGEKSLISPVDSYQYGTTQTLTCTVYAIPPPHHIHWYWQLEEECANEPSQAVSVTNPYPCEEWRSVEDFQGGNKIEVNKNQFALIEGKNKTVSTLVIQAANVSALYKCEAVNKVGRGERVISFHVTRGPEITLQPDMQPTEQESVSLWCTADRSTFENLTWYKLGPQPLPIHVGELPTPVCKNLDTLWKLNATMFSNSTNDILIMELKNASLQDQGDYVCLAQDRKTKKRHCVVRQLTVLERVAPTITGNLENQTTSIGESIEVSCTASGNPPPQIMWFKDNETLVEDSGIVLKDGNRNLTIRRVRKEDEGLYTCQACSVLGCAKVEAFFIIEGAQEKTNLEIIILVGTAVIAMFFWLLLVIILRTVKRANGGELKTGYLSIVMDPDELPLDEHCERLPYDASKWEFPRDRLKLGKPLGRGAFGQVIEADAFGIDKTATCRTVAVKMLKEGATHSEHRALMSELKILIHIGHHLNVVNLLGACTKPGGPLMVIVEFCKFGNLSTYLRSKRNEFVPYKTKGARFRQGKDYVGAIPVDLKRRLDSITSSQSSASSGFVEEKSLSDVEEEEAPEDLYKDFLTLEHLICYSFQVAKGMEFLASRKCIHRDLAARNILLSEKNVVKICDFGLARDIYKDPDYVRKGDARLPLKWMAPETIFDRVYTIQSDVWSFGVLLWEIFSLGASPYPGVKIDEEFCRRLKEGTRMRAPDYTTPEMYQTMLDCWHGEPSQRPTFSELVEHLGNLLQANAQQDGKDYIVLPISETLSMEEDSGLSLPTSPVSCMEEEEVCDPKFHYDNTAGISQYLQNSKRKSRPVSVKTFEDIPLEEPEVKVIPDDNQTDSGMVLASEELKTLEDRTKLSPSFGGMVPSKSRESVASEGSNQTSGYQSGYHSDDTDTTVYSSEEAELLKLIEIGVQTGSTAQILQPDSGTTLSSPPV

[8] = biological target: T7, Stk6 (Homo sapiens, UniProt O14965); assay: Z'-Lyte FRET kinase assay (Invitrogen), Stk6; details: read-out: IC50, activity toward kinase Stk6
T7 construct: purchased Invitrogen (Carlsbad, Calif.), screening service
T7 sequence (O14965 1-403): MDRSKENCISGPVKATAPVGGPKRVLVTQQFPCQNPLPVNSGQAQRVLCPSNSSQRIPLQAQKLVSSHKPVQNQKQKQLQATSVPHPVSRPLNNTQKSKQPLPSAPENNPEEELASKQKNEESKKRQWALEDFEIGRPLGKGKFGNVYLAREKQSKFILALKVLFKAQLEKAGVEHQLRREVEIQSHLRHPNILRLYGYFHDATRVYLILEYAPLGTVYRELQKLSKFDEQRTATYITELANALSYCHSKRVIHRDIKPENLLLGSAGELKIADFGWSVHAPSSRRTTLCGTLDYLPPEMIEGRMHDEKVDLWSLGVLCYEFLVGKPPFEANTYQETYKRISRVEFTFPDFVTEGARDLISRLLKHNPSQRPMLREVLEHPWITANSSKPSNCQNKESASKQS

[9] = biological target: T8, B-Raf V600E (Homo sapiens, UniProt P15056, V600E); assay: AlphaScreen kinase assay, B-Raf V600E; details: read-out: IC50, activity toward kinase B-Raf V600E
T8 construct: P4254. pFastBacBD-CDC37 BRAF D437-K722-X, V600E; His6 with pFastBac HT leader (TEV site) (N); made in house; host or cells: Sf9 (baculovirus; chaperone CDC37 co-expressed)
T8 sequence (P15056 with tags, fused parts or gaps V600E): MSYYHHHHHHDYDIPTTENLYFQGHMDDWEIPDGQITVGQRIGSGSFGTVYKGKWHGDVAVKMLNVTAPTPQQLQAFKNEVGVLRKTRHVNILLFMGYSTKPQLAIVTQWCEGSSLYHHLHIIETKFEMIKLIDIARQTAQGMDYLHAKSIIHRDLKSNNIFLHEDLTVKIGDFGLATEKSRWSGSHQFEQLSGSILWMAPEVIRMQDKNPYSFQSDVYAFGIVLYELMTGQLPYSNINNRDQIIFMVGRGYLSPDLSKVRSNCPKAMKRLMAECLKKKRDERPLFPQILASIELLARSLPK

[10] = biological target: T9, Jnk3 (Homo sapiens, UniProt P53779); assay: AlphaScreen kinase assay, Jnk3; details: read-out: IC50, activity toward kinase Jnk3
T9 construct: purchased Upstate Biotechnology
T9 sequence (P53779 whole entry): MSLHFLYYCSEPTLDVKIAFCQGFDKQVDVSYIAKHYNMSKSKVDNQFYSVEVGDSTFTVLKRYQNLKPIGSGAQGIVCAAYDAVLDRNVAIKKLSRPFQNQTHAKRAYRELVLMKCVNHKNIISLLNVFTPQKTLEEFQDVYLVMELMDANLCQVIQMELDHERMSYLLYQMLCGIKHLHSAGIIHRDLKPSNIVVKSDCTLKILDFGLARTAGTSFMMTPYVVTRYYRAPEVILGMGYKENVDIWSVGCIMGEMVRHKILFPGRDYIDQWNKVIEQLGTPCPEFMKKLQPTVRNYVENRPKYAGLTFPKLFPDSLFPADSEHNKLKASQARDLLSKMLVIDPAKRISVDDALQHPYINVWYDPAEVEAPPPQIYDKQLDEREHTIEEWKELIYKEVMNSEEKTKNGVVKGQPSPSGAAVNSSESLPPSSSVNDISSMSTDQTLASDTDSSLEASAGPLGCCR

[11] = biological target: T10, Kit (Homo sapiens, UniProt P10721); assay: AlphaScreen kinase assay, Kit; details: read-out: IC50, activity toward kinase Kit
T10 construct: P1332.N6 BI PTP KIT M552-K948-X COD; His6 (N); made in house; host or cells: E. coli (PTP1B co-expressed)
T10 sequence (P10721 with tags, fused parts or gaps): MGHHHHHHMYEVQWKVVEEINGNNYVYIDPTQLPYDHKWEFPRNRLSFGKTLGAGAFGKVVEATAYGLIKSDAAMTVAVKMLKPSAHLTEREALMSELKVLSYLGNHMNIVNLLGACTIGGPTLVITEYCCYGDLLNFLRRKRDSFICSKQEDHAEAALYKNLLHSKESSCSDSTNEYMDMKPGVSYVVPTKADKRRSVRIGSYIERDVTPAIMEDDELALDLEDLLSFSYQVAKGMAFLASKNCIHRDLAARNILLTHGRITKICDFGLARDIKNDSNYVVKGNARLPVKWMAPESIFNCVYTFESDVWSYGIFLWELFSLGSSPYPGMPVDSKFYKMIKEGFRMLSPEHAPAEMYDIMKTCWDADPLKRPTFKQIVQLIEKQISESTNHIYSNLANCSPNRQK

[12] = biological target: T11, Fak (Homo sapiens, UniProt Q05397); assay: AlphaScreen kinase assay, Fak; details: read-out: IC50, activity toward kinase Fak
T11 construct: P1358.pFastBacHtb FAK S411-Q686-X; His6 with pFastBacHTb leader (TEV site) (N); made in house; host or cells: Sf9 (baculovirus)

[13] = biological target: T12, FGFR1 (Homo sapiens, UniProt P11362, C488A/C584S); assay: AlphaScreen kinase assay, FGFR1; details: read-out: IC50, activity toward kinase FGFR
T12 construct: P1351.pET N6 BI-PTP FGFR A458-E765-X C488A, C584S; made in house; host or cells: E. coli (PTP1B co-expressed)
T12 sequence (P11362 458-765 C488A/C584S): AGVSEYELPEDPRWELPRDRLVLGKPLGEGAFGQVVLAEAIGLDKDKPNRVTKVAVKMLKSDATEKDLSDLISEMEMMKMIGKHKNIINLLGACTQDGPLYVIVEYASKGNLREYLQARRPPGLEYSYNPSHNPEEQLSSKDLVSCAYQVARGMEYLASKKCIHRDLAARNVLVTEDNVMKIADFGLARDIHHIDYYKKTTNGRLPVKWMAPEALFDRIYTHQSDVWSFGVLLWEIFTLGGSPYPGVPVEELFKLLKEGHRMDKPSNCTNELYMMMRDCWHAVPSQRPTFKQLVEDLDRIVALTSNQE

[14] = biological target: T13, Jnk1 (Homo sapiens, UniProt P45983); assay: AlphaScreen kinase assay, Jnk1; details: read-out: IC50, activity toward kinase Jnk1
T13 construct: purchased Upstate Biotechnology

[15] = biological target: T14, Src (Homo sapiens, UniProt P12931); assay: AlphaScreen kinase assay, Src; details: read-out: IC50, activity toward kinase Src
T14 construct: P1144. pET-N6 BI-PTP SRC V86-L536-X; made in house

[16] = biological target: T15, Met (Homo sapiens, UniProt P08581); assay: AlphaScreen kinase assay, Met; details: read-out: IC50, activity toward kinase Met
T15 construct: P1818.pETN6 BI-PTP MET G1056-G1364-X WT; His6 (N); made in house; host or cells: E. coli (PTP1B co-expressed)
How it was run: as §1

[17] = biological target: T16, Ret (Homo sapiens, UniProt P07949); assay: AlphaScreen kinase assay, Ret; details: read-out: IC50, activity toward kinase Ret
T16 construct: P1378.pET-SF BI-PTP RET H661-R1012 HIS; made in house
T16 sequence (P07949 with tags, fused parts or gaps): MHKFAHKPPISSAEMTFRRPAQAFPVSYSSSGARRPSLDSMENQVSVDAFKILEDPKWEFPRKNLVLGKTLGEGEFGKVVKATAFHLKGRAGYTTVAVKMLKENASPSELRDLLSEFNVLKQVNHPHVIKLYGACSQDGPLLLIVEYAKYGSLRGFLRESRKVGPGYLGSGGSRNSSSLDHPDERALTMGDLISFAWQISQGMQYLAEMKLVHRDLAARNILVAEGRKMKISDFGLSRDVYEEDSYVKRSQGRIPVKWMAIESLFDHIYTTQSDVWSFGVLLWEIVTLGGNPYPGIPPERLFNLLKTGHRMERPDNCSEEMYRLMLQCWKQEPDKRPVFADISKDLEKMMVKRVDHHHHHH

[18] = biological target: T17, Flt1 (Homo sapiens, UniProt P17948); assay: AlphaScreen kinase assay, Flt1; details: read-out: IC50, activity toward kinase Flt1
T17 construct: P1826.pETN6 BI-PTP FLT1 M799-D1165-X WT; His6 (N); made in house; host or cells: E. coli (PTP1B co-expressed)
T17 sequence (P17948 with tags, fused parts or gaps): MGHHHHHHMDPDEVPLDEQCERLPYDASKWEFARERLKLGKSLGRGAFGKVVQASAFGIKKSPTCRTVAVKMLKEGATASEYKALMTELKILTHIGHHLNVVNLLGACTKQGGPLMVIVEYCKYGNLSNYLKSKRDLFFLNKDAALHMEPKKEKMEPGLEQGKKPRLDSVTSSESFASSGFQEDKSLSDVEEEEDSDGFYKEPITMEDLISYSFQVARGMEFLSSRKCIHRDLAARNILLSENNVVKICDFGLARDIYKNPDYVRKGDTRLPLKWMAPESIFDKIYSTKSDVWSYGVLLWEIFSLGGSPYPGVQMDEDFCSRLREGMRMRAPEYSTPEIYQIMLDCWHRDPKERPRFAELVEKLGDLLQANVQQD

[19] = biological target: T18, Abl (Homo sapiens, UniProt P00519); assay: AlphaScreen kinase assay, Abl; details: read-out: activity toward kinase Abl, IC50
T18 construct: P1121. pET-SPEC BI-PTP Abl G227-V515-X; His6 (N); made in house; host or cells: E. coli (PTP1B co-expressed)
T18 sequence (P00519 with tags, fused parts or gaps): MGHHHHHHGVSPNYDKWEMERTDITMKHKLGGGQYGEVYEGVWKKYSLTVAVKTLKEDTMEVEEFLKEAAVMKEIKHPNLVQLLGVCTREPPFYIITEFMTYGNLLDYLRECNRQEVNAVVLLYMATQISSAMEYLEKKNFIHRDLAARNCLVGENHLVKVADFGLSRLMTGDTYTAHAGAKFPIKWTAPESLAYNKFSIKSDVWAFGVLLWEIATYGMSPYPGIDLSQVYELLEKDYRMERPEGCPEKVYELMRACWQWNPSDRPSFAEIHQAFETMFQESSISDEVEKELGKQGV
How it was run: as §1

[20] = biological target: T19, Flt4 (Homo sapiens, UniProt P35916); assay: AlphaScreen kinase assay, Flt4; details: read-out: IC50, activity toward kinase Flt4
T19 construct: purchased ProQinase GmbH (Freiburg, Germany)
How it was run: as §1

[21] = biological target: T20, Jnk2 (Homo sapiens, UniProt P45984); assay: AlphaScreen kinase assay, Jnk2; details: read-out: IC50, activity toward kinase Jnk2
T20 construct: purchased Roche Protein Expression Group (Indianapolis, IN)
How it was run: as §1

Measured: IC50

T1 sequence (P15056 whole entry): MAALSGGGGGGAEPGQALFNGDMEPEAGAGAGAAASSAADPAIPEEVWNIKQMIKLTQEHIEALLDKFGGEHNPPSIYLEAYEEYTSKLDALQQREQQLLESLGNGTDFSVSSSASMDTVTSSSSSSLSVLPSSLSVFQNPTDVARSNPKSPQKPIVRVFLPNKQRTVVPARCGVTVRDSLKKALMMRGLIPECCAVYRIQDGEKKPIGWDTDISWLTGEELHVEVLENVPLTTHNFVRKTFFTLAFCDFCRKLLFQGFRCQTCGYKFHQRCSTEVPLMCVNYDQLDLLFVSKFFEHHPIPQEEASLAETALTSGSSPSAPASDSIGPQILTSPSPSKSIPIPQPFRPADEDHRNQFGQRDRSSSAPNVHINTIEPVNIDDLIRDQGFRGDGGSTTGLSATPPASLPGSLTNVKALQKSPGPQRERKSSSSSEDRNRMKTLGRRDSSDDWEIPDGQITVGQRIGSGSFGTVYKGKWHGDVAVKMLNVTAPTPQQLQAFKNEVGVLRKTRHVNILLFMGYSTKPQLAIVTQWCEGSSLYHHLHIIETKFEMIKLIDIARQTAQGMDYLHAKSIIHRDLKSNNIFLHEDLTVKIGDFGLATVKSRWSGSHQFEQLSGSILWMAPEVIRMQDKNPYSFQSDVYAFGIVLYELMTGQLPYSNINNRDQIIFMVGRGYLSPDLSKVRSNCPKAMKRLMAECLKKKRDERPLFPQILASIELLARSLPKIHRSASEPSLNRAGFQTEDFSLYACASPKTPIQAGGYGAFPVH

c1cc(Nc2ccc(N3CCCCC3)cc2)c2cc[nH]c2n1 [Compound P-0883]
≤ 10 µM: [1] | [2] | [3] | [4] | [5] | [6]

CS(=O)(=O)c1cccc(-c2cnc3[nH]ccc3c2)c1 [Compound P-0173, 5-(3-Methanesulfonyl-phenyl)-1H-pyrrolo[2,3-b]pyridine]
≤ 10 µM: [7] | [8] | [6]

c1cc2cc(Nc3ccc(N4CCCCC4)cc3)cnc2[nH]1 [Compound P-1016]
≤ 10 µM: [9] | [10] | [11] | [5] | [6]

NC(=O)c1cccc(-c2cnc3[nH]cc(Cc4ccccc4O)c3c2)c1 [Compound P-1385]
≤ 10 µM: [1] | [9] | [12] | [13] | [3] | [14] | [10] | [11] | [15] | [6]

Oc1cccc(Cc2c[nH]c3ncc(-c4cccnc4)cc23)c1F [Compound P-0778, 2-Fluoro-3-(5-pyridin-3-yl-1H-pyrrolo[2,3-b]pyridin-3-ylmethyl)-phenol]
≤ 10 µM: [1] | [9] | [2] | [3] | [10] | [11] | [16] | [17] | [6]

CCN(CC)c1ccc(Nc2cnc3[nH]ccc3c2)cc1 [Compound P-0951]
≤ 10 µM: [9] | [12] | [13] | [18] | [10] | [7] | [11] | [16] | [5] | [6]

COc1cccc(C(=O)c2c[nH]c3ncc(-c4cccc(N)c4)cc23)c1 [Compound P-0579]
not listed: [2] | [3] | [4] | [5] | [8] | [12] | [15] | [16]
≤ 10 µM: all other assays above
